Laboratory results reported in ChEMBL document CHEMBL5143693, “Design and synthesis of endocannabinoid enzyme inhibitors for ocular indications” (Bioorg Med Chem Lett, 2022).
The source made the active and inactive calls. The calls are words filed in the database; no cut-off is given here.

Key:
[1] = molecular target: T1, Fatty-acid amide hydrolase 1 (Homo sapiens, UniProt O00519); assay: Inhibition of FAAH (unknown origin) by fluorescence based method
T1 sequence (O00519 whole entry): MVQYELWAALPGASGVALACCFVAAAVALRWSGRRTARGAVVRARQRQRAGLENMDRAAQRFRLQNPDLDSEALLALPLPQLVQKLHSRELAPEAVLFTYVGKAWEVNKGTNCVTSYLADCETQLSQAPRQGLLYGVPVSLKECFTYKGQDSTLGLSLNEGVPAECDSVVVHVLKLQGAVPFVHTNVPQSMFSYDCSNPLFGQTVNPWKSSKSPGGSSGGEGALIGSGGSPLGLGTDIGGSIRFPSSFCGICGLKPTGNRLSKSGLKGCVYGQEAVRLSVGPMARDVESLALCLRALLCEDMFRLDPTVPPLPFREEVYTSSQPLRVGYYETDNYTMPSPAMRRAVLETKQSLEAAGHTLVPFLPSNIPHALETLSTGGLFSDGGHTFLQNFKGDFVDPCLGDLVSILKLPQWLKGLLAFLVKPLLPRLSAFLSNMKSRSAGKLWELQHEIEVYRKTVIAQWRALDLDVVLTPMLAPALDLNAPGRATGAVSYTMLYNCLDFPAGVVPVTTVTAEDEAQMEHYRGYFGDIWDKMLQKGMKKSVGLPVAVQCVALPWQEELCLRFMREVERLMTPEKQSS

[2] = Permeability of the compound by measuring lambda maximum incubated for 18 hrs by PAMPA method; format: ADME; details: read-out: permeability
[3] = molecular target: T2, Monoglyceride lipase (Homo sapiens) (UniProt Q99685); assay: Inhibition of recombinant human MAGL assessed as blockage of […] labelling at 100 uM by ABPP assay
T2 sequence (whole entry): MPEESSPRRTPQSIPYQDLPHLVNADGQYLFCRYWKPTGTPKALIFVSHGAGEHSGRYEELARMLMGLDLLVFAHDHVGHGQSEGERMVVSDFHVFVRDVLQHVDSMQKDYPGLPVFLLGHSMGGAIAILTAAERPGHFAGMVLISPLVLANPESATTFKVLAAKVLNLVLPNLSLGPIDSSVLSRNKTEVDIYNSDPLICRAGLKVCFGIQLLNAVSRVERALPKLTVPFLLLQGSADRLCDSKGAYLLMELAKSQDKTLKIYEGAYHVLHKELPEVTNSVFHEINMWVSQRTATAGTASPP

[4] = molecular target: T3, Fatty-acid amide hydrolase 1 (Rattus norvegicus) (UniProt P97612); assay: Inhibition of FAAH in rat eye homogenate assessed as blockage of […] labelling by ABPP assay; format: tissue-based
T3 sequence (whole entry): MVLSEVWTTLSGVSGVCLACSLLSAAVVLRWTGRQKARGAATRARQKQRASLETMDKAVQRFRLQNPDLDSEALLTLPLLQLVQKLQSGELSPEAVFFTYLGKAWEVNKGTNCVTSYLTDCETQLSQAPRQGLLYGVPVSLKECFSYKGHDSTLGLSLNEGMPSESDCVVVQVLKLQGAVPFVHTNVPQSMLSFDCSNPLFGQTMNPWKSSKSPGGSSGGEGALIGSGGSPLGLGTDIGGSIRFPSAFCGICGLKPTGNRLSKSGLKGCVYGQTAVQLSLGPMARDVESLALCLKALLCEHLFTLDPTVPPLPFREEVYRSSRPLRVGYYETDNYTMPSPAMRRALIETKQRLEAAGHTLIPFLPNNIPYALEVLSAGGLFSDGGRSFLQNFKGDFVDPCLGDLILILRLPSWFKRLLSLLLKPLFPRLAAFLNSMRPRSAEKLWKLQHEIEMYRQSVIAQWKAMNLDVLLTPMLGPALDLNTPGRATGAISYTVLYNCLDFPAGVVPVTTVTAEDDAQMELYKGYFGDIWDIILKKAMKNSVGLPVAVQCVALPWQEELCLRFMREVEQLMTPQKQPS

[5] = molecular target: T4, Fatty-acid amide hydrolase 1 (Homo sapiens) (UniProt O00519); assay: Inhibition of recombinant human FAAH assessed as blockage of […] labelling at 100 uM by ABPP assay
T4 sequence (whole entry): T1 sequence (O00519 whole entry)

[6] = molecular target: T5, Monoglyceride lipase (Rattus norvegicus) (UniProt Q8R431); assay: Inhibition of MAGL in rat eye homogenate assessed as blockage of […] labelling by ABPP assay; format: tissue-based
T5 sequence (whole entry): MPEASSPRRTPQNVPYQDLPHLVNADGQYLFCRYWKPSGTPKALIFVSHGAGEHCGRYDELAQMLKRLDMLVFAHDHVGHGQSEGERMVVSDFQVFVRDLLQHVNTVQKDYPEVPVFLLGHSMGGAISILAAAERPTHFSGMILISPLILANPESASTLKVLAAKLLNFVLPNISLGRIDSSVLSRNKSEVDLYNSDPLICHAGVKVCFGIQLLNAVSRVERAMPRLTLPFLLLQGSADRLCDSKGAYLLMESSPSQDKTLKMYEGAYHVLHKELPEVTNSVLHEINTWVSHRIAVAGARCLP

Monoglyceride lipase = molecular target: T6, Monoglyceride lipase (Homo sapiens, UniProt Q99685); assay: Inhibition of MAGL (unknown origin) by fluorescence based method
T6 sequence (Q99685 whole entry): T2 sequence (whole entry)

[7] = molecular target: T7, Fatty-acid amide hydrolase 1 (Mus musculus, UniProt O08914); assay: Inhibition of mouse brain FAAH by competitive ABPP assay; format: tissue-based
T7 sequence (O08914 whole entry): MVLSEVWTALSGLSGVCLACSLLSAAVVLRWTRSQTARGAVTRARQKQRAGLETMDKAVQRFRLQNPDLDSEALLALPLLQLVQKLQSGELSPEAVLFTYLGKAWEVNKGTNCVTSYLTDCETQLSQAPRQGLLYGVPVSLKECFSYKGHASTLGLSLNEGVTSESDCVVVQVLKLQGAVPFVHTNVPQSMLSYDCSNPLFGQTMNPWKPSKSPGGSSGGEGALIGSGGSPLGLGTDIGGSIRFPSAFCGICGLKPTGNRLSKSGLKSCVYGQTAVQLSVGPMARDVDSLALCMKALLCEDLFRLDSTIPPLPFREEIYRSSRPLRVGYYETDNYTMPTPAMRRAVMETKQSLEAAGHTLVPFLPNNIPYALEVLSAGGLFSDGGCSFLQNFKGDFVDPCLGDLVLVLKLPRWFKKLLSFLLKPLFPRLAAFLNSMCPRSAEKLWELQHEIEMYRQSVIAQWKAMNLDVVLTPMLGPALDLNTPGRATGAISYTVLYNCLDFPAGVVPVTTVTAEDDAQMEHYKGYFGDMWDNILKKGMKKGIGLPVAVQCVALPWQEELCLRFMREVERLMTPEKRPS

Row | IC50 [1] [nM] | Papp at 18 h [2] [×10⁻⁶ cm/s] | SMILES | inhibition [3] | inhibition [4] | inhibition [5] | inhibition [6] | IC50 (Monoglyceride lipase) [nM] | IC50 [7] [nM]
1 | 333 | 0.24 | O=C(Oc1ccc([N+](=O)[O-])cc1)N1CCN(S(=O)(=O)c2ccc(C3CCCCC3)cc2)CC1 |  |  |  |  |  | 
2 | 380 | 0.23 | O=C(Oc1ccc([N+](=O)[O-])cc1)N1CCN(S(=O)(=O)c2ccc(Oc3cccc(Cl)c3)cc2)CC1 |  |  |  |  |  | 
3 | 2950 | 0.23 | O=C(Oc1ccc([N+](=O)[O-])cc1)N1CCN(S(=O)(=O)c2ccc(Oc3ncc(C(F)(F)F)cc3Cl)cc2)CC1 |  |  |  |  |  | 
4 | 322 | 0.23 | O=C(Oc1ccc([N+](=O)[O-])cc1)N1CCN(S(=O)(=O)c2ccc(Oc3ccccc3)cc2)CC1 |  |  |  |  |  | 
5 | 437 | 0.19 | O=C(Oc1ccc([N+](=O)[O-])cc1)N1CCN(S(=O)(=O)c2ccc(-c3ccccc3)cc2)CC1 |  |  |  |  |  | 
6 | 382 | 0.28 | O=C(Oc1ccc([N+](=O)[O-])cc1)N1CCN(S(=O)(=O)c2ccc(-c3ccc(Cl)c(Cl)c3)cc2)CC1 |  |  |  |  |  | 
7 | 317 | 0.31 | O=C(Oc1ccc([N+](=O)[O-])cc1)N1CCN(S(=O)(=O)c2ccc(Oc3ccc(Cl)c(Cl)c3)cc2)CC1 |  |  |  |  |  | 
8 | 1150 | 0.27 | O=C(Oc1ccc([N+](=O)[O-])cc1)N1CCN(S(=O)(=O)c2ccc(Oc3ccccc3Cl)cc2)CC1 |  |  |  |  |  | 

Row | SMILES | IC50 [1] [nM] | Papp at 18 h [2] [×10⁻⁶ cm/s] | inhibition [3] | inhibition [4] | inhibition [5] | inhibition [6] | IC50 (Monoglyceride lipase) [nM] | IC50 [7] [nM]
9 | CCCCc1ccc(S(=O)(=O)N2CCN(C(=O)Oc3ccc([N+](=O)[O-])cc3)CC2)cc1 | 179 | 0.26 | Active | Active | Active | Active | 759 | 
10 | O=C(Oc1ccc([N+](=O)[O-])cc1)N1CCN(S(=O)(=O)c2ccc(Oc3ccc(Cl)cc3)cc2)CC1 | 153 | 0.24 |  |  |  |  | 2060 | 
11 | O=C(Oc1ccc([N+](=O)[O-])cc1)N1CCN(S(=O)(=O)c2ccc3ccccc3c2)CC1 |  | 0.26 | 100% | Active | 100% | Active | 284 | 10.5
